From patent publication US10959432B2, “Microbiocidal oxadiazole derivatives” (Syngenta Participations AG, priority 2016, dated 2021)

Assays:
[1] = system: Uromyces viciae-fabae; assay: Fungicidal activity against Uromyces viciae-fabae / field bean / leaf disc preventative (faba-bean rust); format: in vivo; conditions: foliar, 288 h, 100 ppm in the applied formulation, field bean leaf discs, preventative (inoculated two hours after application), assessed 12 days after application, read-out: disease control compared to untreated control leaf discs
Experimental: Leaf disks or leaf segments of various plant species are cut from plants grown in a greenhouse. The cut leaf disks or segments are placed in multiwell plates (24-well format) onto water agar. The leaf disks are sprayed with a test solution before (preventative) or after (curative) inoculation. Compounds to be tested are prepared as DMSO solutions (max. 10 mg/ml) which are diluted to the appropriate concentration with 0.025% Tween20 just before spraying. The inoculated leaf disks or segments are incubated under defined conditions (temperature, relative humidity, light, etc.) according to the respective test system. A single evaluation of disease level is carried out 3 to 14 days after inoculation, depending on the pathosystem. Percent disease control relative to the untreated check leaf disks or segments is then calculated. General Examples of Liquid Culture Tests in Well Plates:
Example 5: Fungicidal Activity Against Uromyces viciae-fabae/Field Bean/Leaf Disc Preventative (Faba-Bean Rust)
Field bean leaf discs are placed on water agar in multiwell plates (96-well format) and 10 μl of the formulated test compound diluted in acetone and a spreader pipetted onto the leaf disc. Two hours after application leaf discs are inoculated by spraying a spore suspension on the lower leaf surface. The leaf discs are incubated in a climate cabinet at 22° C. with 18 hour day and 70% relative humidity. The activity of a compound is assessed as percent disease control compared to untreated when an appropriate level of disease damage appears in untreated check leaf disks (12 days after application).
The following compounds at 100 ppm in the applied formulation give at least 80% disease control in this test when compared to untreated control leaf discs under the same conditions, which show extensive disease development.

[2] = system: Glomerella laqenarium (Colletotrichum lagenarium); assay: Fungicidal activity against Glomerella lagenarium (Colletotrichum lagenarium) liquid culture / cucumber / preventative (anthracnose); format: cell-based; conditions: Colletotrichum orbiculare; 20 ppm in the applied formulation; liquid culture in PDB, 24° C., 3 to 4 days after application; read-out: disease control compared to untreated control (inhibition of growth measured photometrically)
Summary of the method: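 Cryostored conidia mixed into potato dextrose broth and added to test compound (from DMSO solution) in microtiter plates. Incubated at 24 °C; growth inhibition read photometrically 3 to 4 days after application, as percent activity versus untreated check.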

[3] = system: Puccinia recondita f. sp. tritici; assay: Fungicidal activity against Puccinia recondita f. sp. tritici / wheat / leaf disc curative (brown rust); format: in vivo; conditions: foliar, 200 ppm in the applied formulation, wheat leaf segments cv. Kanzler, curative (applied 1 day after inoculation), assessed 6 to 8 days after application, read-out: disease control compared to untreated control leaf disks
Summary of the method: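 Wheat cv. Kanzler leaf segments on agar, spore-inoculated, held dark at 19° C./75% RH; formulated compound in water sprayed 1 day post-inoculation (curative). Incubated 19° C., 75% RH, 12 h light/12 h dark; percent disease control vs untreated scored 6 to 8 days after application.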

[4] = system: Phakopsora pachyrhizi; assay: Fungicidal activity against Phakopsora pachyrhizi / soybean / leaf disc preventative (Asian soybean rust); format: in vivo; conditions: foliar, 200 ppm in the applied formulation, soybean leaf disks, preventative (inoculated one day after application), assessed 12 to 14 days after application, read-out: disease control compared to untreated control leaf disks
Summary of the method: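 Soybean leaf discs on water agar sprayed with formulated compound diluted in water; spore suspension sprayed on lower leaf surface one day later. Incubated 24-36 h dark at 20° C, 75% rh, then 20° C, 12 h light/day, 75% rh. Percent disease control versus untreated scored 12 to 14 days after application.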

[5] = system: Puccinia recondita f. sp. tritici; assay: Fungicidal activity against Puccinia recondita f. sp. tritici / wheat / leaf disc preventative (brown rust); format: in vivo; conditions: foliar, 200 ppm in the applied formulation, wheat leaf segments cv. Kanzler, preventative (inoculated 1 day after application), assessed 7 to 9 days after application, read-out: disease control compared to untreated control leaf disks
Summary of the method: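 Wheat cv. Kanzler leaf segments on agar sprayed with formulated compound diluted in water, inoculated with P. recondita spores 1 day later. Incubated at 19C, 75% rh, 12 h light/12 h dark; scored 7 to 9 days after application as percent disease control versus untreated segments. Test rate 200 ppm.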

O=C(NCc1ccco1)c1ccc(-c2noc(C(F)(F)F)n2)cc1F [Compound 5b.11, 2-fluoro-N-(2-furylmethyl)-4-[5-(trifluoromethyl)-1,2,4-oxadiazol-3-yl]benzamide]
≥ 80%: pest or weed control at 100 ppm [1] | inhibition at 20 ppm [2] | pest or weed control at 200 ppm [3] | pest or weed control at 200 ppm [4] | pest or weed control at 200 ppm [5]

CC1(NC(=O)c2ccc(-c3noc(C(F)(F)F)n3)cc2F)CCC1 [Compound 2b.12, 2-fluoro-N-(1-methylcyclobutyl)-4-[5-(trifluoromethyl)-1,2,4-oxadiazol-3-yl]benzamide]
≥ 80%: pest or weed control at 100 ppm [1] | pest or weed control at 200 ppm [3] | pest or weed control at 200 ppm [4] | pest or weed control at 200 ppm [5]

Cc1ccc(CNC(=O)c2ccc(-c3noc(C(F)(F)F)n3)cc2F)o1 [Compound 5b.9, 2-fluoro-N-[(5-methyl-2-furyl)methyl]-4-[5-(trifluoromethyl)-1,2,4-oxadiazol-3-yl]benzamide]
≥ 80%: pest or weed control at 100 ppm [1] | inhibition at 20 ppm [2] | pest or weed control at 200 ppm [3] | pest or weed control at 200 ppm [4] | pest or weed control at 200 ppm [5]

O=C(NCC1COCCO1)c1ccc(-c2noc(C(F)(F)F)n2)cc1 (stereo not drawn) [Compound 1a.2, N-(1,4-dioxan-2-ylmethyl)-4-[5-(trifluoromethyl)-1,2,4-oxadiazol-3-yl]benzamide]
≥ 80%: pest or weed control at 100 ppm [1] | inhibition at 20 ppm [2] | pest or weed control at 200 ppm [3] | pest or weed control at 200 ppm [4] | pest or weed control at 200 ppm [5]

CC1(NC(=O)c2ccc(-c3noc(C(F)(F)F)n3)cc2)CCC1 [Compound 2a.4, N-(1-methylcyclobutyl)-4-[5-(trifluoromethyl)-1,2,4-oxadiazol-3-yl]benzamide]
≥ 80%: pest or weed control at 100 ppm [1] | pest or weed control at 200 ppm [3] | pest or weed control at 200 ppm [4] | pest or weed control at 200 ppm [5]

Cc1ccc(CNC(=O)c2ccc(-c3noc(C(F)(F)F)n3)cc2Cl)o1 [Compound 5b.16, 2-chloro-N-[(5-methyl-2-furyl)methyl]-4-[5-(trifluoromethyl)-1,2,4-oxadiazol-3-yl]benzamide]
≥ 80%: pest or weed control at 100 ppm [1] | inhibition at 20 ppm [2] | pest or weed control at 200 ppm [3] | pest or weed control at 200 ppm [4] | pest or weed control at 200 ppm [5]

O=C(NCC1COCCO1)c1ccc(-c2noc(C(F)(F)F)n2)cc1Cl (stereo not drawn) [Compound 1b.13, 2-chloro-N-(1,4-dioxan-2-ylmethyl)-4-[5-(trifluoromethyl)-1,2,4-oxadiazol-3-yl]benzamide]
≥ 80%: pest or weed control at 100 ppm [1] | pest or weed control at 200 ppm [3] | pest or weed control at 200 ppm [5]

CN(CC1OCCO1)C(=O)c1ccc(-c2noc(C(F)(F)F)n2)cc1F [Compound 1b.2, N-(1,3-dioxolan-2-ylmethyl)-2-fluoro-N-methyl-4-[5-(trifluoromethyl)-1,2,4-oxadiazol-3-yl]benzamide]
≥ 80%: pest or weed control at 100 ppm [1] | pest or weed control at 200 ppm [3] | pest or weed control at 200 ppm [4] | pest or weed control at 200 ppm [5]

CN(CC(=O)NC(C)(C)C)C(=O)c1ccc(-c2noc(C(F)(F)F)n2)cc1 [Compound 3a.3, N-[2-(tert-butylamino)-2-oxo-ethyl]-N-methyl-4-[5-(trifluoromethyl)-1,2,4-oxadiazol-3-yl]benzamide]
≥ 80%: pest or weed control at 100 ppm [1] | inhibition at 20 ppm [2] | pest or weed control at 200 ppm [3] | pest or weed control at 200 ppm [4] | pest or weed control at 200 ppm [5]

O=C(NCCc1cccs1)c1ccc(-c2noc(C(F)(F)F)n2)cc1F [Compound 5b.13, 2-fluoro-N-[2-(2-thienyl)ethyl]-4-[5-(trifluoromethyl)-1,2,4-oxadiazol-3-yl]benzamide]
≥ 80%: pest or weed control at 100 ppm [1] | inhibition at 20 ppm [2] | pest or weed control at 200 ppm [3] | pest or weed control at 200 ppm [4] | pest or weed control at 200 ppm [5]

O=C(NC1CCCSC1)c1ccc(-c2noc(C(F)(F)F)n2)cc1F (stereo not drawn) [Compound 1b.5, 2-fluoro-N-tetrahydrothiopyran-3-yl-4-[5-(trifluoromethyl)-1,2,4-oxadiazol-3-yl]benzamide]
≥ 80%: pest or weed control at 100 ppm [1] | inhibition at 20 ppm [2] | pest or weed control at 200 ppm [3] | pest or weed control at 200 ppm [4] | pest or weed control at 200 ppm [5]

CON1CCC(N(C)C(=O)c2ccc(-c3noc(C(F)(F)F)n3)cc2)CC1 [Compound 1a.3, N-(1-methoxy-4-piperidyl)-N-methyl-4-[5-(trifluoromethyl)-1,2,4-oxadiazol-3-yl]benzamide]
≥ 80%: pest or weed control at 100 ppm [1] | inhibition at 20 ppm [2] | pest or weed control at 200 ppm [3] | pest or weed control at 200 ppm [5]

CN(C(=O)c1ccc(-c2noc(C(F)(F)F)n2)cc1)C1CCOC1 (stereo not drawn) [Compound 1a.7, N-methyl-N-tetrahydrofuran-3-yl-4-[5-(trifluoromethyl)-1,2,4-oxadiazol-3-yl]benzamide]
≥ 80%: pest or weed control at 100 ppm [1] | pest or weed control at 200 ppm [3] | pest or weed control at 200 ppm [5]

CC1(C)OCC(CNC(=O)c2ccc(-c3noc(C(F)(F)F)n3)cc2F)O1 (stereo not drawn) [Compound 1b.6, N-[(2,2-dimethyl-1,3-dioxolan-4-yl)methyl]-2-fluoro-4-[5-(trifluoromethyl)-1,2,4-oxadiazol-3-yl]benzamide]
≥ 80%: pest or weed control at 100 ppm [1] | pest or weed control at 200 ppm [3] | pest or weed control at 200 ppm [4] | pest or weed control at 200 ppm [5]

Cc1ccsc1CN(C)C(=O)c1ccc(-c2noc(C(F)(F)F)n2)cc1F [Compound 5b.3, 2-fluoro-N-methyl-N-[(3-methyl-2-thienyl)methyl]-4-[5-(trifluoromethyl)-1,2,4-oxadiazol-3-yl]benzamide]
≥ 80%: pest or weed control at 100 ppm [1] | inhibition at 20 ppm [2] | pest or weed control at 200 ppm [3] | pest or weed control at 200 ppm [4]

CCCN(C(=O)c1ccc(-c2noc(C(F)(F)F)n2)cc1)C1CCN(OC)CC1 [Compound 1a.5, N-(1-methoxy-4-piperidyl)-N-propyl-4-[5-(trifluoromethyl)-1,2,4-oxadiazol-3-yl]benzamide]
≥ 80%: pest or weed control at 100 ppm [1] | inhibition at 20 ppm [2] | pest or weed control at 200 ppm [3]

O=C(NC1CCCC1(F)F)c1ccc(-c2noc(C(F)(F)F)n2)cc1F (stereo not drawn) [Compound 2b.17, N-(2,2-difluorocyclopentyl)-2-fluoro-4-[5-(trifluoromethyl)-1,2,4-oxadiazol-3-yl]benzamide]
≥ 80%: pest or weed control at 100 ppm [1] | pest or weed control at 200 ppm [3] | pest or weed control at 200 ppm [4] | pest or weed control at 200 ppm [5]

O=C(NCC1CCC1)c1ccc(-c2noc(C(F)(F)F)n2)cc1F [Compound 2b.11, N-(cyclobutylmethyl)-2-fluoro-4-[5-(trifluoromethyl)-1,2,4-oxadiazol-3-yl]benzamide]
≥ 80%: pest or weed control at 100 ppm [1] | pest or weed control at 200 ppm [3] | pest or weed control at 200 ppm [4] | pest or weed control at 200 ppm [5]

CCN(C(=O)c1ccc(-c2noc(C(F)(F)F)n2)cc1)C1CCN(OC)CC1 [Compound 1a.4, N-ethyl-N-(1-methoxy-4-piperidyl)-4-[5-(trifluoromethyl)-1,2,4-oxadiazol-3-yl]benzamide]
≥ 80%: pest or weed control at 100 ppm [1] | inhibition at 20 ppm [2] | pest or weed control at 200 ppm [3] | pest or weed control at 200 ppm [5]

O=C(NCC1CCC1)c1ccc(-c2noc(C(F)(F)F)n2)cc1 [Compound 2a.3, N-(cyclobutylmethyl)-4-[5-(trifluoromethyl)-1,2,4-oxadiazol-3-yl]benzamide]
≥ 80%: pest or weed control at 100 ppm [1] | pest or weed control at 200 ppm [3] | pest or weed control at 200 ppm [4] | pest or weed control at 200 ppm [5]
